SMILES strings stand for the structures.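 Growth conditions: 96-well plates. Treatment: test compound, 48 hours, 5 concentrations. Analysis: linear interpolation between bracketing concentrations; unreached endpoints set to highest concentration. GI50 is the concentration that inhibits growth by half. The concentration for full growth arrest is given as TGI.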

Test systems include EKVX NSCLC; HOP-92 NSCLC; SK-OV-3 ovarian; ACHN renal; SNB-19 CNS; A549 NSCLC; NCI-H23 lung; SF-539 CNS; HOP-62 NSCLC; SF-268 CNS.
What all share (assay): NCI anticancer screen, dose series, 48 h

Turning to `CC(=O)NNC(=S)/N=C/c1c(O)cc(C)oc1=O`, the TGI in the assay with EKVX NSCLC, in the assay with HOP-92 NSCLC, in the assay with SK-OV-3 ovarian, in the assay on ACHN renal, with SNB-19 CNS and with A549 NSCLC was > 100 µM each time. Further, the TGI in the assay on NCI-H23 lung, in the assay on SF-539 CNS and in the assay with HOP-62 NSCLC was > 100 µM throughout.

Turning to `CC(=O)Nc1ccc2oc(=O)c3ccccc3c2c1`, the TGI with EKVX NSCLC, in the assay on HOP-92 NSCLC, with ACHN renal, in the assay with SNB-19 CNS, with A549 NSCLC and in the assay on NCI-H23 lung was > 100 µM throughout. Moreover, the TGI in the assay on SF-268 CNS, with SF-539 CNS and in the assay on HOP-62 NSCLC was > 100 µM in each case.

For the compound `COc1cc2ccnc3c2c(c1OC)CC1CC(O)C(OC)CC31` (stereo unspecified), the TGI with EKVX NSCLC is 88.6 µM; in the assay with HOP-92 NSCLC it was 81.2 µM; in the assay on SK-OV-3 ovarian, > 100 µM; in the assay on ACHN renal, > 100 µM; in the assay on SNB-19 CNS, > 100 µM; with A549 NSCLC, > 100 µM. Moreover, the TGI in the assay with NCI-H23 lung is > 100 µM; in the assay on SF-539 CNS, 55.4 µM; in the assay with HOP-62 NSCLC, > 100 µM.

Turning to `Cc1cccc2c1O/C(=C\c1ncc([N+](=O)[O-])n1C)C2=O`, the GI50 in the assay with HOP-92 NSCLC was 0.279 µM; in the assay with SK-OV-3 ovarian it was 0.812 µM; with ACHN renal, 0.0595 µM; in the assay on SNB-19 CNS, 0.615 µM; in the assay with A549 NSCLC, 0.382 µM; in the assay with NCI-H23 lung, 0.213 µM. Moreover, the results for the GI50 in the assay on SF-268 CNS, in the assay on SF-539 CNS and with HOP-62 NSCLC were 0.215 µM, 1.15 µM and 0.599 µM, respectively. The TGI in the assay with HOP-92 NSCLC was determined as 1.64 µM; in the assay on SK-OV-3 ovarian, 3.83 µM; in the assay with ACHN renal, 0.341 µM; in the assay with SNB-19 CNS it was 4.6 µM; in the assay with A549 NSCLC it was 2.26 µM; in the assay on NCI-H23 lung it was 0.742 µM. In addition, the TGI with SF-268 CNS came to 0.942 µM; in the assay on SF-539 CNS it was 3.87 µM; in the assay with HOP-62 NSCLC, 1.97 µM.

As for `N#Cc1ccc(-c2nc3ccc(Cl)cc3[nH]2)cc1`, the TGI with EKVX NSCLC, with HOP-92 NSCLC, with SK-OV-3 ovarian, with SNB-19 CNS, in the assay on A549 NSCLC and with SF-539 CNS was > 100 µM throughout. Moreover, the TGI in the assay with HOP-62 NSCLC is > 100 µM.

With `N#CC(C(=O)CCC(=O)Nc1ccc(Cl)cc1)c1ccccc1Cl` (stereo unspecified), the TGI with EKVX NSCLC, in the assay on HOP-92 NSCLC, with SK-OV-3 ovarian, in the assay on ACHN renal, with SNB-19 CNS and in the assay with A549 NSCLC was > 100 µM each time. Besides, the TGI in the assay with NCI-H23 lung, in the assay with SF-268 CNS and in the assay with SF-539 CNS was > 100 µM in each case.

Take `O=C(COc1ccc(Cl)cc1)N1N=C(c2ccc([N+](=O)[O-])o2)CC1(O)c1ccccc1` (stereo unspecified): the TGI in the assay with HOP-92 NSCLC is 37.7 µM; in the assay with SK-OV-3 ovarian it was 47.3 µM; in the assay with SNB-19 CNS, 25.8 µM; with A549 NSCLC it was 28.8 µM; in the assay with NCI-H23 lung, 6.73 µM; in the assay on SF-268 CNS, 33.4 µM. For the same compound, the TGI in the assay with SF-539 CNS turned out to be 26.9 µM; in the assay on HOP-62 NSCLC it was 35.8 µM.

In the case of `O=C(O)CN(c1ccccc1)S(=O)(=O)c1ccc(Cl)cc1`, the TGI in the assay with EKVX NSCLC, with HOP-92 NSCLC, in the assay with SK-OV-3 ovarian, in the assay with ACHN renal, with SNB-19 CNS and in the assay with A549 NSCLC was > 100 µM each time. Further, the TGI with NCI-H23 lung, in the assay with SF-268 CNS and with SF-539 CNS was > 100 µM throughout.

As for `C[Si](C)(C)/C=C\CCCN1C(=O)CCC1=O`, the TGI in the assay with EKVX NSCLC, with HOP-92 NSCLC, in the assay with SK-OV-3 ovarian, in the assay on ACHN renal, in the assay with SNB-19 CNS and with A549 NSCLC was > 100 µM in each case. In addition, the TGI in the assay on NCI-H23 lung, with SF-268 CNS and in the assay on SF-539 CNS was > 100 µM throughout.

On to `C=CCCC(C)N(C(=O)OC(C)(C)C)S(=O)(=O)c1ccc(C)cc1` (stereo unspecified), for which the TGI in the assay with HOP-92 NSCLC, with SK-OV-3 ovarian, in the assay on ACHN renal, with SNB-19 CNS, in the assay on A549 NSCLC and in the assay with NCI-H23 lung was > 100 µM throughout. Besides, the TGI in the assay on SF-268 CNS, in the assay with SF-539 CNS and in the assay with HOP-62 NSCLC was > 100 µM throughout.

As for `NNC(=O)CCC(=O)Nc1ccc(Cl)cc1Cl`, the TGI in the assay with HOP-92 NSCLC, in the assay with SK-OV-3 ovarian, in the assay with ACHN renal, with SNB-19 CNS, in the assay on A549 NSCLC and in the assay with NCI-H23 lung was > 100 µM each time. Also, the TGI in the assay on SF-268 CNS, in the assay on SF-539 CNS and with HOP-62 NSCLC was > 100 µM throughout.

For `O=C1/C(=C/c2ccccc2Br)COc2ccc(O)c(O)c21`, the GI50 in the assay with EKVX NSCLC was 2.09 µM; in the assay on HOP-92 NSCLC, 2.71 µM; in the assay with SK-OV-3 ovarian, 3.95 µM; in the assay with ACHN renal, 1.32 µM; in the assay with SNB-19 CNS it was 1.69 µM; in the assay on A549 NSCLC, 2.17 µM. In addition, the values for the GI50 in the assay with NCI-H23 lung, in the assay with SF-268 CNS and in the assay on HOP-62 NSCLC were 1.83 µM, 1.6 µM and 2.29 µM, respectively. In addition, the TGI in the assay on EKVX NSCLC was found to be 5.23 µM; in the assay on HOP-92 NSCLC it was 9 µM; with SK-OV-3 ovarian it was 15 µM; in the assay on ACHN renal, 3.09 µM; in the assay on SNB-19 CNS it was 3.92 µM; with A549 NSCLC, 10.2 µM. The TGI with NCI-H23 lung was determined as 4.17 µM; with SF-268 CNS it was 4.23 µM; in the assay with HOP-62 NSCLC, 6.54 µM.

For the compound `COc1cc2ccc(/C(C)=N/OC(C)=O)cc2cc1OC`, the TGI with EKVX NSCLC, in the assay on HOP-92 NSCLC, in the assay on SK-OV-3 ovarian, with ACHN renal, in the assay on SNB-19 CNS and with A549 NSCLC was > 100 µM throughout. In addition, the TGI in the assay on NCI-H23 lung, with SF-268 CNS and with SF-539 CNS was > 100 µM each time.

Consider `NC(=O)c1cc(Cl)ccc1NC(=O)c1ccccc1-c1ccccc1`, for which the GI50 in the assay on HOP-92 NSCLC was 3.96 µM; in the assay on SK-OV-3 ovarian, 0.677 µM; in the assay with ACHN renal, 0.799 µM; in the assay on SNB-19 CNS, 0.709 µM; with A549 NSCLC, 1.16 µM; with NCI-H23 lung, 2.01 µM. The GI50 with SF-268 CNS is 5.38 µM; in the assay with SF-539 CNS, 0.319 µM; in the assay on HOP-62 NSCLC, 0.902 µM. The TGI in the assay with HOP-92 NSCLC is 61.5 µM; with SK-OV-3 ovarian, 11.3 µM; in the assay with ACHN renal, 87.6 µM; in the assay on SNB-19 CNS it was > 100 µM; with A549 NSCLC, > 100 µM; in the assay with NCI-H23 lung, > 100 µM. Also, the TGI with SF-268 CNS is > 100 µM; with SF-539 CNS, 1.89 µM; in the assay on HOP-62 NSCLC, > 100 µM.

Turning to `O=C(CN1CCOCC1)CC(O)(C(F)(F)F)C(F)(F)F`, the TGI is > 100 µM in the assay on EKVX NSCLC; 97.2 µM with HOP-92 NSCLC; > 100 µM in the assay on SK-OV-3 ovarian; > 100 µM in the assay with ACHN renal; > 100 µM in the assay on SNB-19 CNS; > 100 µM with A549 NSCLC. For the same compound, the TGI in the assay on NCI-H23 lung and in the assay on SF-539 CNS was > 100 µM in each case.

As to `CCCC1C(=O)C(CC)Cc2c(OC)ccc(OC)c21` (stereo unspecified), the TGI with EKVX NSCLC, with HOP-92 NSCLC, in the assay on SK-OV-3 ovarian, in the assay with ACHN renal, in the assay with SNB-19 CNS and in the assay on A549 NSCLC was > 100 µM each time. In addition, the TGI with SF-268 CNS, in the assay with SF-539 CNS and with HOP-62 NSCLC was > 100 µM in each case.

Turning to `CC([C@H]1CCC2C3CCC4CC5(CC[C@]4(C)C3CC[C@@]21C)c1ccccc1C(=O)N5C)N(C)C` (stereo partly specified), the TGI in the assay with HOP-92 NSCLC, in the assay with SK-OV-3 ovarian, in the assay on ACHN renal, in the assay with SNB-19 CNS, with A549 NSCLC and in the assay with NCI-H23 lung was > 100 µM throughout. The TGI in the assay on SF-268 CNS is > 100 µM; in the assay with SF-539 CNS, 71.8 µM; in the assay with HOP-62 NSCLC it was > 100 µM.

For `CC(=O)O[C@H]1C(=O)[C@@]2(C)[C@H]([C@H](OC(=O)c3ccccc3)[C@]3(O)C[C@H](OC(=O)[C@H](O)[C@@H](NC(=O)CC(C)C)c4ccccc4)C(C)=C1C3(C)C)[C@]1(OC(C)=O)CO[C@@H]1C[C@@H]2O`, the TGI in the assay on EKVX NSCLC was > 10 µM; in the assay on HOP-92 NSCLC, 9.85 µM; in the assay on ACHN renal it was > 10 µM; in the assay with SNB-19 CNS, > 10 µM; in the assay with A549 NSCLC, > 10 µM; with NCI-H23 lung, > 10 µM. Also, the results for the TGI with SF-268 CNS, with SF-539 CNS and with HOP-62 NSCLC were > 10 µM, 0.196 µM and > 10 µM, respectively.

As for `C/C=C1\C(=O)O[C@@H]2C1C[C@@H]1O[C@H]2[C@H](C)CCC/C(C)=C/CC[C@@]1(C)O` (stereo partly specified), the GI50 was 2.22 µM in the assay on EKVX NSCLC; 7.62 µM in the assay on HOP-92 NSCLC; 14.1 µM in the assay with SK-OV-3 ovarian; 2.77 µM with ACHN renal; 19.4 µM in the assay on SNB-19 CNS; 10.6 µM with A549 NSCLC. Moreover, the GI50 with SF-268 CNS was 8.45 µM; with SF-539 CNS, 2.52 µM. The TGI is 5.53 µM in the assay with EKVX NSCLC; 31.5 µM in the assay with HOP-92 NSCLC; 37.4 µM with SK-OV-3 ovarian; 14.5 µM in the assay with ACHN renal; 40.6 µM with SNB-19 CNS; 22.5 µM in the assay on A549 NSCLC. In addition, the figures for the TGI in the assay with SF-268 CNS and in the assay with SF-539 CNS were 23 µM and 6.06 µM, respectively.

(Values after PubChem BioAssay (NCI).)
